From patent publication US11524012B1, “Quinolone analogs and their salts, compositions, and method for their use” (Senhwa Biosciences, Inc., priority 2018, dated 2022)

Experiments:
[1] = test system: patient-derived xenografts CTG-0012, CTG-0888, HBCx-10, HBCx-14, HBCx-15; assay: Population PK-PD tumor growth inhibition model in PDX mice; type: in vivo, nu/nu mice
Text: The data from 4 additional studies (Table 29) were utilized to elucidate the relationships between Compound I exposure and antitumor activity in mice with patient-derived xenografts (PDX). These studies only included data from nu/nu immunocompromised mice in 5 different PDX models (CTG-0012, CTG0888, HBCx-10, HBCx-15, and HBCx-14).
A population analysis approach was used to simultaneous describe the kinetics of tumor growth (control) and drug inhibition effect (treatment) in nu/nu mice.11 The differential equation for the TGI model is described by Equation 7: […]
where XEN represents the xenograft compartment, kgrowth is the rate constant for tumor growth, kdrug is the rate constant for drug-induced antitumor inhibition, and fcp is the predicted unbound concentration of Compound I in plasma. In this model, the PD effect was driven using the free (not total) concentration of Compound I obtained using the developed mouse PK model. An averaged unbound fraction of 0.2% (99.8% bound) was used based on measured values for protein binding in mouse plasma. Five different xenograft types (CTG-0012, CTG-0888, HBCx-10, HBCx-14, and HBCx-15) were used in the development of the Compound I TGI model.
For PK-PD model development, Compound I concentration-time data from the same animal in mouse xenograft studies were unavailable. It was therefore assumed that all mice share equal exposures with no variability in the PK of Compound I. The parameters in these animals were fixed to the population mean values derived following development of the mouse PK model.
A population analysis approach was used to simultaneously model the kinetics of tumor growth (control xenografts) and drug-induced inhibition (treatment groups). Data from 67 nu/nu mice with implanted PDX were used for the development of the TGI model. The predicted plasma concentrations were obtained by fixing population mean values from the PK model developed in nu/nu mice. This assumption was required because drug concentrations were not available from the same animal in which tumor response was measured. […]

[2] = Population PK model in mice (NONMEM); type: in vivo, ICR and athymic nude (nu/nu) mice
Text: The current population analysis utilized non-linear mixed effects modeling to quantify the PK and pharmacodynamics (PD) of Compound I. This approach involved estimation of fixed-effect (mean) parameters, together with inter-individual and residual variability for each of the models developed. Where relevant, covariate effects were incorporated to potentially explain the random sources of variability. An additional benefit of this modeling approach is the ability to appropriately handle sparse or unbalanced data, particularly where practical considerations prohibit intensive sampling. Finally, non-linear mixed effects modeling allows for the stochastic simulation of PK-PD to assist with dose recommendation in target populations of interest.
A total of four non-clinical studies were used to characterize PK of Compound I in mice. The dosing regimens included both intravenous (IV) and oral (PO) routes of administration at various dosing schedules. Animal strains evaluated included wild-type ICR and athymic nude (nu/nu) mice (Table 28).
Several PO absorption and disposition models were investigated to describe the PK of Compound I following IV or PO dosing to mice. In addition, the model included a pathway for enterohepatic recirculation, based on the known pharmacology of Compound I.
Total bodyweight was incorporated a priori into the structural base model to allow for parameter comparison between mice and humans. For this, the disposition parameters were allometrically scaled using Equation 1 below: […]
The input after PO dosing was described by first-order absorption. Drug disposition was characterized by a 3 compartment model, with an additional pathway describing known enterohepatic recirculation.
where compartments 1 to 5 represent the PO dosing, central (plasma), 1st peripheral, 2nd peripheral, and gall bladder, respectively. The FLAG component in Equations 2 and 6 is a reserved variable in the modeling software used that allows for estimation of the start and end times of enterohepatic recycling. All parameters are defined in Table 31.
The kinetics of Compound I concentration and xenograft volume was analyzed using non-linear mixed effects modeling (NONMEM® version 7.3; ICON Development Solutions, Maryland, USA). For PK model development, Compound I total drug concentrations were logarithmically transformed to efficiently accommodate the large range of magnitude in observed data. In contrast, xenograft volumes were modeled in the untransformed scale. All population analyses were performed using first-order conditional estimation with interaction, with the ADVAN13 subroutine (TOL=9) to solve the differential equations. For mouse PK model, the reserved FLAG term was used to define the start and end times of enterohepatic recycling using MTIME.
A total of 43 ICR wild-type and nu/nu mice were used to characterize the plasma PK of Compound I following IV and PO bolus administration. The absorption of Compound I after PO dosing was adequately described by a first-order input model. […] The disposition of Compound I was characterized by a 3-compartment model, with an additional enterohepatic recirculation pathway to accommodate its known pharmacology (FIG. 20).
Inclusion of a pathway to describe known enterohepatic circulation was particularly challenging due to the small number of mice available for population PK analysis. A further limitation was the lack of an apparent ‘double-peak’ in the concentration-time profiles for all mice. Consequently, to support the estimation of this pathway, it was assumed that: • Recirculation begins immediately after dosing with all of the Compound I clearance diverted to the gall bladder for the estimated duration of enterohepatic recycling; • The kinetics of transfer for gall bladder to gut is rapid.

[3] = mice, allometrically scaled to 70 kg, population mean Estimate (% RSE)
[4] = mice, population mean Estimate (% RSE)
[5] = nu/nu relative to ICR mice, population mean Estimate (% RSE)

In the case of `Cc1cnc(CNC(=O)c2c(=O)c3ccc(N4CCCN(C)CC4)nc3n3c2sc2ccccc23)cn1` [Compound I, 2-(4-Methyl-[1,4]diazepan-1-yl)-5-oxo-5H-7-thia-1,11b-diaza-benzo[c]fluorene-6-carboxylic acid (5-methyl-pyrazin-2-ylmethyl)-amide], the “kdrug, Proportionality constant for drug inhibition” value ([1]; PDX nu/nu mice, CTG-0012 reference, population mean Estimate (% RSE)) is reported as 0.0006 (7.8), the “kdrug, Proportionality constant for drug inhibition, % BSV” value ([1]; PDX nu/nu mice, between-subject variability Estimate (% RSE)) is reported as 5.8 (42.5) % and the “proportionality constant for drug-induced inhibition (kdrug)” value ([1]; driven by predicted unbound concentration) is reported as 0.0006. The bioavailability ([2]; ICR and athymic nude (nu/nu), mouse, plasma, po, population estimate, read-out: Absolute bioavailability via the PO route) was 24.8%, the “central volume, nu/nu relative to the ICR wild-type strain” value ([2]; covariate analysis) was ~5 fold and the “clearance, nu/nu relative to the ICR wild-type strain” value ([2]; covariate analysis) was “approximately 4 fold”. For the same compound, the “CL, Clearance from the central compartment” value [2, 3] was 0.330 (13.3) L/h/70 kg, the “CLD1, 1st peripheral distribution clearance” value [2, 3] was 0.145 (29.9) L/h/70 kg and the “CLD2, 2nd peripheral distribution clearance” value [2, 3] was 0.194 (33.7) L/h/70 kg. For the same compound, the “VP1, 1st peripheral distribution volume” value [2, 3] was 7.51 (22.7) L/70 kg, the “VP2, 2nd peripheral distribution volume” value [2, 3] was 149 (21.0) L/70 kg and the “Vc, Central compartment distribution volume” value [2, 3] was 26.2 (15.1) L/70 kg. For the same compound, the “Vc, Central compartment distribution volume, % BSV” value ([2]; mice, between-subject variability Estimate (% RSE)) was 44.5 (22.8) %, the “Foral, Absolute bioavailability after PO dosing” value [2, 4] was 0.248 (9.7) and the “HRCTime, Enterohepatic recirculation time” value [2, 4] was 3.66 (10.7) h. For the same compound, the “ka, First-order rate constant for PO absorption” value [2, 4] was 1.29 (11.5) 1/h, the “FCL_NU, Fold change in clearance (nu/nu mice)” value [2, 5] was 3.99 (14.8) and the “FVC_NU, Fold change in central volume (nu/nu mice)” value [2, 5] was 4.78 (8.8). The “clearance (estimated mean)” value ([2]; population estimate, allometrically scaled) was 0.330 L/h/70 kg.
